The target of test [1] is T1, CDK4-cyclinD3 (Homo sapiens, UniProt P11802).
T1 construct: purchased DiscoveRx (KinomeScan service)
Kind of test: KinomeScan. Format: binding. The settings on record: read-out: % Control.

Test [2] has as its target T2, CDK7 (Homo sapiens, UniProt P50613).
T2 construct: purchased DiscoveRx (KinomeScan service)
Kind of test: KinomeScan. It is filed as binding. The settings on record: read-out: % Control.

For test [3], the target named is CDKL3 (Homo sapiens, UniProt Q8IVW4). Kind of test: KinomeScan. Format: binding. The settings on record: read-out: % Control.
The target of test [4] is T3, DCAMKL1 (Homo sapiens, UniProt O15075).
T3 construct: purchased DiscoveRx (Fremont, CA), KinomeScan service
Nature of the test: KinomeScan. Particulars: read-out: % Control. Format: binding.

In test [5] the target is T4, EGFR(S752-1759del) (Homo sapiens, UniProt P00533, DEL752-759).
T4 construct: purchased DiscoveRx (Fremont, CA)
Kind of test: KinomeScan. Particulars: read-out: % Control. It is filed as binding.

The target of test [6] is T5, FLT3(D835Y) (Homo sapiens, UniProt P36888, D835Y).
T5 construct: purchased DiscoveRx (Fremont, CA)
Nature of the test: KinomeScan. Format: binding. The settings on record: read-out: % Control.

Test [7] deals with T6, MAP4K4 (Homo sapiens, UniProt O95819).
T6 construct: purchased DiscoveRx (Fremont, CA)
Nature of the test: KinomeScan. It is filed as binding. The settings on record: read-out: % Control.

Test [8] deals with T7, MERTK (Homo sapiens, UniProt Q12866).
T7 construct: purchased DiscoveRx (Fremont, CA)
Nature of the test: KinomeScan. It is filed as binding. Particulars: read-out: % Control.

Test [9] addresses T8, MRCKB (Homo sapiens, UniProt Q9Y5S2).
T8 construct: purchased DiscoveRx
Kind of test: KinomeScan. Format: binding. Particulars: read-out: % Control.

For test [10], the target named is T9, MST3 (Homo sapiens, UniProt Q9Y6E0).
T9 construct: purchased DiscoveRx
Kind of test: KinomeScan. Format: binding. Particulars: read-out: % Control.

Test [11] has as its target T10, PIK3CA(E545A) (Homo sapiens, UniProt P42336, E545A).
T10 construct: purchased DiscoveRx (Fremont, CA)
Kind of test: KinomeScan. It is filed as binding. Particulars: read-out: % Control.

Test [12] addresses T11, TRKA (Homo sapiens, UniProt P04629).
T11 construct: purchased DiscoveRx (Fremont, CA)
Kind of test: KinomeScan. Format: binding. Particulars: read-out: % Control.

Test [13] concerns the target T12, CCR2B (Homo sapiens, UniProt P41597).
T12 construct: host or cells: Chem-1 cells with Gα15
Nature of the test: GPCR Profiler. It is filed as cell-based.

Test [14] addresses T13, CX3CR1 (Homo sapiens, UniProt P49238).
T13 construct: host or cells: Chem-1 cells with Gα15
Nature of the test: GPCR Profiler. It is filed as cell-based.

The target in test [15] is T14, S1P4 (Homo sapiens, UniProt O95977).
T14 construct: host or cells: Chem-1 cells with Gα15
Nature of the test: GPCR Profiler. It is filed as cell-based.

For test [16], the system named is K-562. Nature of the test: Cell Titer-Glo viability, Chronic myelogenous leukemia. It is filed as cell-based. The procedure: OGM2 kills wide variety of cancer cell types. Cell sensitivity can be classified in to Very Sensitive (LC50<2 μM), Sensitive (LC50=2 to 10 μM), Mildly Sensitive (LC50>10 μM), and Refractory (no killing at 10 μM). The listed established cell were incubated with OGM2 at 2 μM or 10 μM for 72 hours under standard cell culture conditions, and relative cell number was assessed using Cell Titer-Glo Luminescent Cell Viability Assay (Promega™) following the manufacturer's instructions. Luminescence was determined using a Cytation 5 reader and Gen5 software package (BioTek™).
Cancer cells, which are very sensitive to killing by OGM2 (LCs <2 μM), with reported mRNA expression of GPR68 and the related proton sensing receptor GPR4. LC50's (concentrations causing 50% lethality) were determined using CellTiter-Glo (Promega™, G7570). Cells were plated in 12-well plates (CELLTREAT Scientific Products, 229112) in 1 ml of DMEM with high glucose, GlutaMAX, HEPES, or RPMI 1640 with Penicillin-Streptomycin (ThermoFisher™, 10564029, 11875119 and 15140122) and 10% FBS. Cells were incubated overnight at 37° C. in 5% CO2. Then 1 mL of fresh media was added with DMSO, OGM, or positive control (Erastin; APExBIO Technology, LLC, B1524) and cells incubated for 3 days. On the third day, all media was removed, cells were rinsed with 1×PBS, PBS was removed, and 200 μL of 1× Passive Lysis Buffer (Promega™, E1941) was added to each well. […]. Subsequently, 20 μL of lysate was added to 100 μL CellTiter-Glo™ reagent on a LUMITRAC 200 plate (Greiner™ bio-one, 82050-726). Plates were briefly spun down and read on a GloMax-Multi Detection System (Promega™).
The cells listed in the tables above were incubated with OGM2 at 2 μM or 10 μM for 72 hours under standard cell culture conditions, and relative cell number was assessed using Cell Titer-Glo Luminescent Cell Viability Assay (Promega™) following the manufacturer's instructions. Luminescence was determined using a Cytation 5 reader and Gen5 software package (BioTek™). RNA expression of GPR68 and GPR4 in the corresponding cancer cell lines are listed, according to the publicly available The Human Protein Atlas version 22.0 and Ensembl version 103.38 (see proteinatlas.org). The consensus normalized expression value (“nTPM”=normalize transcript per million) was calculated as the maximum nTPM value for each gene in the two data sources.

The target in test [17] is T15, 336X-GFP (GPR68 truncation variant) (Homo sapiens, UniProt Q15743).
T15 construct: while the full-length (GPR68-GFP) internalizes in response to stimulation; expressed in transfected cells; host or cells: HEK293T
Kind of test: SRE-luciferase assay, 336X-GFP transfected HEK293T cells. It is filed as cell-based. Particulars: OGM 10 μM. The procedure:
12-well plates of cells were transfected with 1 μg DNA using Lipofectamine 3000 with sre:luciferase and either the vector backbone, GFP, GPR68, GPR68-GFP, GPR4, or 336X-GFP. After 3 days, these cells were then lysed, and cell extracts were subjected to Steady-Glo luciferase assay (Promega™) according to the manufacturer's instructions. The results were normalized to cell titer, as determined using Cell Titer-Glo luminescence assay (Promega™). For some procedure, the cells were treated in serum-free medium, and were lysed on the third day.
Loss of internalization can indicate loss of activity or loss of the ability to internalize through beta-arrestin. […] Compared to GFP controls, GPR68-GFP and 336X-GFP transfected cells had higher levels of activity. (n=3 biological replicates done in triplicate). Furthermore, the activity of the truncation variant was still inhibited by OGM. […]

The subject of test [18] is U87. Nature of the test: MitoTracker / TMRM staining. Format: cell-based, human. The text has this:
Lipid peroxidation associated with ferroptosis is known to disrupt mitochondrial membranes, resulting in smaller mitochondria.

T12 sequence (P41597 1-360 isoform P41597-2): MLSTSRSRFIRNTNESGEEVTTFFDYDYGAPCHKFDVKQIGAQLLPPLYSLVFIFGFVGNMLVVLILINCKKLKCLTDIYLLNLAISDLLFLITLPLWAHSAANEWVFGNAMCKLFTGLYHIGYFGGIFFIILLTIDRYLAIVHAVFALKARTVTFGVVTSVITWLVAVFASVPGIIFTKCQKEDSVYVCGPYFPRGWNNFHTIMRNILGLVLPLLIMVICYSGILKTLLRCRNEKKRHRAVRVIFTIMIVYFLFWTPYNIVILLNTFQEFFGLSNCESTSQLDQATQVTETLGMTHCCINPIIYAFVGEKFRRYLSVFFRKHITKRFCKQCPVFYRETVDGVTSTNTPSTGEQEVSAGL
T14 sequence (O95977 whole entry, species assumed): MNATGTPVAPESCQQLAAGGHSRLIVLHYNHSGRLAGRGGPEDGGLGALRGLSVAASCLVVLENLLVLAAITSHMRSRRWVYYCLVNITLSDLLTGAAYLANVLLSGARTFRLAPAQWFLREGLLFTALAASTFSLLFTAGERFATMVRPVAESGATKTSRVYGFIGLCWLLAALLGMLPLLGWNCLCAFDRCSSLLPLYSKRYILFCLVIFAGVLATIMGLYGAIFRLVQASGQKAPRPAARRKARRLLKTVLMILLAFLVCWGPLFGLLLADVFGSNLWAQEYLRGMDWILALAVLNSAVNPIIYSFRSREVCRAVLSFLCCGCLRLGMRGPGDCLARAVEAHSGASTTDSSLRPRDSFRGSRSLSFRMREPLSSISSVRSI
T13 sequence (P49238 whole entry, species assumed): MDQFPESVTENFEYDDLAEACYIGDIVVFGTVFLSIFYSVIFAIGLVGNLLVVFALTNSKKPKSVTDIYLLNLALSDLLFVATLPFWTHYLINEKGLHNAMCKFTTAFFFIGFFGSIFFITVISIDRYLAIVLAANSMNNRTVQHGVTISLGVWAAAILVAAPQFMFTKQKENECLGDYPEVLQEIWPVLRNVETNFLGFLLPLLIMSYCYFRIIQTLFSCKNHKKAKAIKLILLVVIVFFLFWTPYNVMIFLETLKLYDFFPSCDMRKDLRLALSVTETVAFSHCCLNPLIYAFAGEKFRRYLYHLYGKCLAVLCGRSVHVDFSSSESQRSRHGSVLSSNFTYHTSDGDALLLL
T2 sequence (P50613 whole entry): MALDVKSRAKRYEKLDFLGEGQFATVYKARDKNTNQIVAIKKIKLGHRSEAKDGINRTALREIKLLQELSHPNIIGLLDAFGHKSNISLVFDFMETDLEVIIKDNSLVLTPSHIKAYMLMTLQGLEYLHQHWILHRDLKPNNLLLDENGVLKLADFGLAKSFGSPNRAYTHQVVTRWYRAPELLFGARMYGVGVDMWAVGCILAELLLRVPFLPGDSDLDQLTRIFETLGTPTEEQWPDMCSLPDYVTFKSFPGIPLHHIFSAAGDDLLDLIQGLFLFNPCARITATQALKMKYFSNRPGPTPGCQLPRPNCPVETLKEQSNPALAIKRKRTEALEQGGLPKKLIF
T9 sequence (Q9Y6E0 whole entry): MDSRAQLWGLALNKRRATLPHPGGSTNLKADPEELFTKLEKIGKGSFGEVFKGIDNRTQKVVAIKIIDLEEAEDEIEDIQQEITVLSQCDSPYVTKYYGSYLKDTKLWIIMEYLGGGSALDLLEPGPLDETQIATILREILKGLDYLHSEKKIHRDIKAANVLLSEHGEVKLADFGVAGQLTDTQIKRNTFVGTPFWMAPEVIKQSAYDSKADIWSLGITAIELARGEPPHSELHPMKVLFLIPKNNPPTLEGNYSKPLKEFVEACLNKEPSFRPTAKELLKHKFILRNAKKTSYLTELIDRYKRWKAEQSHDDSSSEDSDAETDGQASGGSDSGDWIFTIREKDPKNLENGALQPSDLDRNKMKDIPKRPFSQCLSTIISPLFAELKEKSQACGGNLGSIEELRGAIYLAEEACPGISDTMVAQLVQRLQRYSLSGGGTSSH
T3 sequence (O15075 whole entry): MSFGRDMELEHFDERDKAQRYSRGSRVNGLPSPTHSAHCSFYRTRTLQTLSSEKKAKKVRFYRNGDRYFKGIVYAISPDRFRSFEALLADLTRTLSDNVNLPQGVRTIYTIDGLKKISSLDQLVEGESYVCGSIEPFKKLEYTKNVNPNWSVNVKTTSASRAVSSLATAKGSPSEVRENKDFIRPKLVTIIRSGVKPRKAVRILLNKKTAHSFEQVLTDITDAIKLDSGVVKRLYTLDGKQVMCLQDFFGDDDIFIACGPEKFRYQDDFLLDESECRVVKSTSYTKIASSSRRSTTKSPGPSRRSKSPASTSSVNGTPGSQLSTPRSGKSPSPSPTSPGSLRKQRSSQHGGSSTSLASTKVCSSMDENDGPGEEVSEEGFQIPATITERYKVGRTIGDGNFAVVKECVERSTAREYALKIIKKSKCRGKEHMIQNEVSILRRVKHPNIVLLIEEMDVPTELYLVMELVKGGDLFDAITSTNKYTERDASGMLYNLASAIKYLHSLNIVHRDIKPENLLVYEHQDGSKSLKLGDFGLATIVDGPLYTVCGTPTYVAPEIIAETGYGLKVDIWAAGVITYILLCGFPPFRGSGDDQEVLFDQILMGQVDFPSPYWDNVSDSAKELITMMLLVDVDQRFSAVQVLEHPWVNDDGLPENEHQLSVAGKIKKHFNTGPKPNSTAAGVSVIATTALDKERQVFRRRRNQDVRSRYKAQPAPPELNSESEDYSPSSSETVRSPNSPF
T4 sequence (P00533 with tags, fused parts or gaps DEL752-759 limits assumed): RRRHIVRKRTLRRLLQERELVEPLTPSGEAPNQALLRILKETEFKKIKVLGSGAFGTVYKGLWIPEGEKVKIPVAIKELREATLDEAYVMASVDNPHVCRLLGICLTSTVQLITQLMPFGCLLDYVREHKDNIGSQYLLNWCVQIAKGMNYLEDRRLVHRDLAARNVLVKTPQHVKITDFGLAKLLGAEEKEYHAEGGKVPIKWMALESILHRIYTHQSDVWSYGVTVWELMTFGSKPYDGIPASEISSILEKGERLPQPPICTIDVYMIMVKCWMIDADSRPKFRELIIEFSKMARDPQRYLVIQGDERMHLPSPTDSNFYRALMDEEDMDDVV
T8 sequence (Q9Y5S2 whole entry): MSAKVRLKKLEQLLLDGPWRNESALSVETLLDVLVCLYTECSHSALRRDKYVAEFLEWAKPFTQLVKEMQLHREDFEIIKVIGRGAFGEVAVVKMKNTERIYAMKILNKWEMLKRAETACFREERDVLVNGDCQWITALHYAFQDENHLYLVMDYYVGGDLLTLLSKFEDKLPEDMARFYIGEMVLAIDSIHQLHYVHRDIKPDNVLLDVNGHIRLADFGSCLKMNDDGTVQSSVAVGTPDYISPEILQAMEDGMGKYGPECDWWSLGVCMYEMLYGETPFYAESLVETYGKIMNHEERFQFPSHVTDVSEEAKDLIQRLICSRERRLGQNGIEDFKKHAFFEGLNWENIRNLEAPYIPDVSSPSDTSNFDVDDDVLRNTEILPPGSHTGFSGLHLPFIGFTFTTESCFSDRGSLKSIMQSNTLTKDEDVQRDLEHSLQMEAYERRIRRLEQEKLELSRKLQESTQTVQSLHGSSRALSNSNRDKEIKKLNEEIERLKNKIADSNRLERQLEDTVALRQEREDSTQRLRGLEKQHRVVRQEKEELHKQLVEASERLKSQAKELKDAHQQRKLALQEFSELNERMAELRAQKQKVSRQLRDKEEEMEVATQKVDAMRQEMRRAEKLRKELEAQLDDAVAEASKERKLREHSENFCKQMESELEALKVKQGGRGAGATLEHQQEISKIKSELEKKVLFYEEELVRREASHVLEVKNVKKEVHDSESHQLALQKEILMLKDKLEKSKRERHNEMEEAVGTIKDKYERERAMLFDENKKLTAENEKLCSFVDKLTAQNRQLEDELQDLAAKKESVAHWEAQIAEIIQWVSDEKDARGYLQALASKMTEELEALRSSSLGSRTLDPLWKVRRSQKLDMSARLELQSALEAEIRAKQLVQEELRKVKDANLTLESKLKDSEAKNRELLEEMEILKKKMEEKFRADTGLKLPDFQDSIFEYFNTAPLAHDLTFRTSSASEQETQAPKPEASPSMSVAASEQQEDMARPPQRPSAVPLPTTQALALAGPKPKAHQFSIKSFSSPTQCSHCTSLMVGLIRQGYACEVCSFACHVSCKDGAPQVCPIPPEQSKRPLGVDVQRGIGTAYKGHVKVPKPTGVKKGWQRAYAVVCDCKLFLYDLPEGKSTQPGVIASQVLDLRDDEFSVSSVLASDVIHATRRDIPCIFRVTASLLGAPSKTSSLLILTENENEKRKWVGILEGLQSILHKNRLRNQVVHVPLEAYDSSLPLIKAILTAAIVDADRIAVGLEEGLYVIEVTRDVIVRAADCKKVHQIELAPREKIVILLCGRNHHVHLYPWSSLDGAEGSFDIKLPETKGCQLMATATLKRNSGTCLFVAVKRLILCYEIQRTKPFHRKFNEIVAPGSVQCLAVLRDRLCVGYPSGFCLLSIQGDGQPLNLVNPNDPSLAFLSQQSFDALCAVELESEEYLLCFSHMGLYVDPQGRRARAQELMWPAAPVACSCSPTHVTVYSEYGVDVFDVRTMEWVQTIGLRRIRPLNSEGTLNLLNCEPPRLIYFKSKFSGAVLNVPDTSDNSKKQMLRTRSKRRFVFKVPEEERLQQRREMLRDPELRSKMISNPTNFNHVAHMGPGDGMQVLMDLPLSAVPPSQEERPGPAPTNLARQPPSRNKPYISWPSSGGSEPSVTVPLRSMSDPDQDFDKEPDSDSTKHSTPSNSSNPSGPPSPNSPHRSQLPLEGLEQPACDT

Consider `CCc1ccc2c(c1)C1(NN=C(c3cccc4ccccc34)S1)C(=O)N2` (stereo not drawn) [OGM1, 5-ethyl-5′-naphthalen-1-ylspiro[1H-indole-3,2′-3H-1,3,4-thiadiazole]-2-one], for which the remaining binding at 10 µM was 76% in test [1]; 64% in test [2]; 100% in test [3]; 72% in test [4]; 91% in test [5]; 100% in test [6]. For the same compound, the remaining binding at 10 µM is 100% in test [7]; 80% in [8]; 100% in test [9]; 61% in [10]; 81% in test [11]; 81% in test [12]. Besides, the Antagonism in test [13] (10 uM) is given as 0.7; in [14] (10 uM) it was −12.1; in [15] (10 uM), −5.2. The Agonism in test [13] (12.5 uM) came to 0.7; in [14] (12.5 uM), 0.3; in test [15] (12.5 uM), 0.3.

For `CCc1ccc2c(c1)C1(NN=C(c3ccccc3)S1)C(=O)N2` (stereo not drawn) [OGM2], the Class entry in test [16] is recorded as “Sensitive (Sensitive (LC50=2 to 10 μM))”. Moreover, in test [16] (72 hours), the “% Survival 2 μM OGM” value was found to be 56.7% and the “% Survival 10 μM OGM” value was 37.0%. Moreover, the CC50 in test [16] (Homo sapiens, K562, 72 hours, read-out: LC50 (the source's name)) is 2 to 10 µM. Besides, the SRE-luciferase activity entry in test [17] was “reduced the level of luciferase activity”. In [18], the “mitochondrial membrane potential (TMRM)” value was “decreased mitochondrial membrane potential”.

These data come from patent US20240327364A1, “THERAPEUTIC TARGETING OF GPR68 TO INDUCE FERROPTOSIS” (University Of Maryland, Baltimore, priority 2023, published 2024).
